US20260325487A1 (BS BIOTECHNA SPOLKA AKCYJNA, priority 2023, published 2026)
Like-named read-outs stand apart in the source and are kept apart here.

How the values were obtained:
Assay type in all cases: cell-based
NCI-H226 = assay: SRB anti-proliferative assay, NCI-H226, molecular combination and nanoparticles, with combination index (Example III); details: Homo sapiens
Protocol: (§1) Cells were thawed from ampoules stored in liquid nitrogen and cultured in petri dishes in the appropriate culture medium according to Table 16, in a humidified 5% CO2 atmosphere at 37° C. Cells were passaged twice weekly using EDTA-Trypsin solution, pH 8, as a separating agent. Counted cells with a viability of at least 90% as assessed with Trypan-Blue solution were used for anti-proliferation assays.
(§2) Twenty-four hours before the addition of the test compounds/combinations, cells were seeded into 384-well plates at 50 μL/well and a density of 10^3 cells/well, in the appropriate culture medium. […] Solutions of the compounds were diluted in the test medium—RPMI-1640 and Opti-MEM in a 1:1 ratio, and the medium was supplemented with 2 mM glutamine and 5% fetal bovine serum FBS.
(§3) After 72 h, colourimetric assessment of cell growth was performed by SRB. […] Unbound dye was removed by washing the plates (4×) in 1% (v/v) acetic acid, and protein-bound dye was extracted with 10 mM unbuffered Tris base and the optical density (A=540 nm) was determined in a BioTek Synergy H4 Hybrid computer microplate reader (BioTek Instruments USA). The entire washing/staining procedure was performed using a BioTek EL406 washing station (BioTek Instruments USA). The raw absorbance results were analysed in Microsoft Excel software using the formula:
(§4) [formula] • Where: • % Zahlnh-inhibition of proliferation • Am—absorbance of wells without cells (medium) • Ak—absorbance of control wells (cells treated with pure culture medium) • Ap—absorbance of wells treated with compounds
(§5) Each compound at the indicated concentrations was tested in triplicate in one experiment. Each experiment was repeated three times. Data analysis was supplemented with synergy assessment using CalcuSyn software. […] A CI value below 0.8 indicates synergism, 0.8-1.2 an additive effect, above 1.2 an antagonism.

A172 = assay: SRB anti-proliferative assay, A172, molecular combination and nanoparticles, with combination index (Example III); details: Homo sapiens, A 172, 72 h, read-out: Zah. (inhibition of proliferation)
Protocol: as §1, §2, §3, §4, §5

BxPC3 = assay: SRB anti-proliferative assay, BxPC3, with CalcuSyn combination index (Example 1); details: Homo sapiens, BXPC-3, 72 h, read-out: Zah. (inhibition of proliferation)
Protocol: (§6) Cells were thawed from ampoules stored in liquid nitrogen and cultured in petri dishes in appropriate culture medium according to Table 2, in a humidified 5% CO2 atmosphere at 37° C. Cells were passaged twice weekly using EDTA-Trypsin solution, pH 8. Counted cells with a viability of at least 90% as assessed with Trypan-Blue solution were used for anti-proliferative assays.
(§7) Twenty-four hours before the addition of the test compounds/combinations, cells were seeded into 384-well plates at 50 μL/well and a density of 10^3 cells/well, in the appropriate culture medium.
as §3, with “Solutions of the compounds were diluted in the test medium-RPMI-1640 and Opti-MEM in a 1:1 ratio, and the medium was supplemented with 2 mM glutamine and 5% fetal bovine serum FBS. After” for “After”
as §4, §5

NCI-H1299 = assay: SRB anti-proliferative assay, NCI-H1299, with CalcuSyn combination index (Example 1); details: Homo sapiens, NCI-H1299, 72 h, read-out: Zah. (inhibition of proliferation)
Protocol: as §6, §7
as §3, with “Solutions of the compounds were diluted in the test medium-RPMI-1640 and Opti-MEM in a 1:1 ratio, and the medium was supplemented with 2 mM glutamine and 5% fetal bovine serum FBS. After” for “After”
as §4, §5

C=CCNC1=C2C[C@@H](C)C[C@H](OC)[C@H](O)[C@@H](C)/C=C(\C)[C@H](OC(N)=O)[C@@H](OC)/C=C\C=C(/C)C(=O)NC(=CC1=O)C2=O [17AAG, 17-AAG (tanespimycin)]
inhibition at 0.0032 µM (NCI-H226; NCI-H226, read-out: Inhibition of cell proliferation (Zah.), single agent, 3.2 nM): 10.4%
inhibition at 0.01 µM (NCI-H226; NCI-H226, read-out: Inhibition of cell proliferation (Zah.), single agent, 10 nM): 17.2%
inhibition at 0.0316 µM (NCI-H226; NCI-H226, read-out: Inhibition of cell proliferation (Zah.), single agent, 31.6 nM): 29.4%
inhibition at 0.1 µM (NCI-H226; NCI-H226, read-out: Inhibition of cell proliferation (Zah.), single agent, 100 nM): 51.4%
inhibition at 0.3163 µM (NCI-H226; NCI-H226, read-out: Inhibition of cell proliferation (Zah.), single agent, 316.3 nM): 59.1%
inhibition at 1 µM (NCI-H226; NCI-H226, read-out: Inhibition of cell proliferation (Zah.), single agent, 1000 nM): 65%
inhibition at 3.1625 µM (NCI-H226; NCI-H226, read-out: Inhibition of cell proliferation (Zah.), single agent, 3162.5 nM): 69.5%
inhibition at 10.0005 µM (NCI-H226; NCI-H226, read-out: Inhibition of cell proliferation (Zah.), single agent, 10000.5 nM): 68.4%
inhibition at 0.0032 µM (NCI-H226; NCI-H226, read-out: Zah. (inhibition of cell proliferation), NCI-H226 (Table 35a), compound alone, 3.2 nM): 10.4%
inhibition at 0.01 µM (NCI-H226; NCI-H226, read-out: Zah. (inhibition of cell proliferation), NCI-H226 (Table 35a), compound alone, 10 nM): 17.2%
inhibition at 0.0316 µM (NCI-H226; NCI-H226, read-out: Zah. (inhibition of cell proliferation), NCI-H226 (Table 35a), compound alone, 31.6 nM): 29.4%
inhibition at 0.1 µM (NCI-H226; NCI-H226, read-out: Zah. (inhibition of cell proliferation), NCI-H226 (Table 35a), compound alone, 100 nM): 51.4%
inhibition at 0.3163 µM (NCI-H226; NCI-H226, read-out: Zah. (inhibition of cell proliferation), NCI-H226 (Table 35a), compound alone, 316.3 nM): 59.1%
inhibition at 1 µM (NCI-H226; NCI-H226, read-out: Zah. (inhibition of cell proliferation), NCI-H226 (Table 35a), compound alone, 1000 nM): 65%
inhibition at 3.1625 µM (NCI-H226; NCI-H226, read-out: Zah. (inhibition of cell proliferation), NCI-H226 (Table 35a), compound alone, 3162.5 nM): 69.5%
inhibition at 10.0005 µM (NCI-H226; NCI-H226, read-out: Zah. (inhibition of cell proliferation), NCI-H226 (Table 35a), compound alone, 10000.5 nM): 68.4%
inhibition at 0.0032 µM (NCI-H226; NCI-H226, read-out: Zah. (inhibition of cell proliferation), NCI-H226, compound alone, 3.2 nM): -6.6%
inhibition at 0.01 µM (NCI-H226; NCI-H226, read-out: Zah. (inhibition of cell proliferation), NCI-H226, compound alone, 10 nM): -4.6%
inhibition at 0.0316 µM (NCI-H226; NCI-H226, read-out: Zah. (inhibition of cell proliferation), NCI-H226, compound alone, 31.6 nM): 30.6%
inhibition at 0.1 µM (NCI-H226; NCI-H226, read-out: Zah. (inhibition of cell proliferation), NCI-H226, compound alone, 100 nM): 44.7%
inhibition at 0.3163 µM (NCI-H226; NCI-H226, read-out: Zah. (inhibition of cell proliferation), NCI-H226, compound alone, 316.3 nM): 49.3%
inhibition at 1 µM (NCI-H226; NCI-H226, read-out: Zah. (inhibition of cell proliferation), NCI-H226, compound alone, 1000 nM): 59%
inhibition at 3.1625 µM (NCI-H226; NCI-H226, read-out: Zah. (inhibition of cell proliferation), NCI-H226, compound alone, 3162.5 nM): 63.5%
inhibition at 10.0005 µM (NCI-H226; NCI-H226, read-out: Zah. (inhibition of cell proliferation), NCI-H226, compound alone, 10000.5 nM): 61.4%
inhibition at 0.0003163 µM (A172): 6%
inhibition at 0.001 µM (A172): 15.7%
inhibition at 0.0032 µM (A172): 4.7%
inhibition at 0.01 µM (A172): 7.8%
inhibition at 0.0316 µM (A172): 20.1%
inhibition at 0.1 µM (A172): 37.4%
inhibition at 0.3163 µM (A172): 64.6%
inhibition at 1 µM (A172): 81.1%
inhibition at 0.0031 µM (BxPC3): 1.7%
inhibition at 0.01 µM (BxPC3): 2.7%
inhibition at 0.0314 µM (BxPC3): 24.4%
inhibition at 0.1 µM (BxPC3): 54.7%
inhibition at 0.3155 µM (BxPC3): 75.9%
inhibition at 1 µM (BxPC3): 89.4%
inhibition at 3.1546 µM (BxPC3): 95.3%
inhibition at 10 µM (BxPC3): 95.2%
inhibition at 0.0031 µM (NCI-H1299): 5.1%
inhibition at 0.01 µM (NCI-H1299): 10.5%
inhibition at 0.0314 µM (NCI-H1299): 43.4%
inhibition at 0.1 µM (NCI-H1299): 80.8%
inhibition at 0.3155 µM (NCI-H1299): 93.4%
inhibition at 1 µM (NCI-H1299): 96.9%
inhibition at 3.1546 µM (NCI-H1299): 96.8%
inhibition at 10 µM (NCI-H1299): 95.3%
